# Results from patent US8673281B2 (BioCis Pharma Oy, priority 2003, dated 2014).
# “Also recorded” adds a separate entry of the source.
# Experiments:
# histamine receptors = conditions: Laihia, 1998; cited from earlier work
# [1] = cited from earlier work; for imidazolyl pKa: Roberts et al. 1982, Krien & Kermici 2000
# [2] = Protonation state calculated with the Henderson-Hasselbalch Equation; conditions: pH 6.5
# From the text: It can be hypothesized that the ability of UCA to acidify cytosol in living cells depends on two major parameters: the pH of the extracellular space and the initial pH of the cytosol. Because UCA is found mainly in the skin, one should consider these two parameters in the context of the physiological environment. It is well known that the human skin has an acid mantle with a surficial pH around 4-6. When the stratum corneum is stripped layer by layer, the pH increases gradually and, after total removal of the stratum corneum, the pH in the remaining epidermis is about 6.9 (Öhman & Vahlquist, 1994). In deeper layers, the almost neutral pH of the interior body is reached. A recent analysis provides evidence that UCA is the major pH-regulating factor in the human stratum corneum (Krien & Kermici 2000). The majority of UCA resides in the stratum corneum; however, a significant amount of UCA diffuses into and evidently also through the (epi)dermis, because elevated levels of cis-UCA can be detected in the urine within 1-4 h following total-body UVB exposure (Kammayer et al. 1997). […] In contrast, at a pH below the imidazolyl pKa's, UCA would be mainly in the protonated form capable of promoting cytosolic acidification upon cell entry. […] To provide experimental support for these hypotheses, we measured the change in cytosolic pH in UCA-treated cells. […]
# neutrophils [3] = experiment: Respiratory burst activity, opsonized zymosan-induced chemiluminescence; type: cell-based, human; conditions: 3 mM UCA
# Protocol: The respiratory burst activity was used as a measure of neutrophil function. The UCA isomers were tested in a chemiluminescence assay with opsonized zymosan as described (Kivistö et al. 1996). The peak values were recorded.
# To examine how the cytosol-acidifying effect of UCA correlates with the previously reported inhibition of neutrophil respiratory burst activity, we measured the effect of 3 mM UCA on opsonized zymosan-induced chemiluminescence by the same batch of neutrophils and in the same experimental conditions described above, i.e. when the pH of the test solution was adjusted back to its initial level after UCA addition. […] In the same conditions, cis-UCA suppressed the respiratory burst activity by 15%±8.4% and 44%±1.3%, respectively. […] The corresponding inhibitions for cis-UCA were 41%±10% at pH 6.60±0.02 (nominal pH 7.4) and 48%±1.6% at pH 6.33±0.07 (nominal pH 6.5).
# neutrophil cytosol = experiment: UCA metabolism in neutrophil cytosol (TCA precipitation, scintillation counting, HPLC); type: in vitro ADME, human
# Protocol: An aminopropyl stationary phase column Lichrosorb NH2, Hibar RT, 250×4 mm, 5 μm (Merck, Darmstadt, Germany) was used. The eluent was a 50% (v/v) mixture of acetonitrile and a solution of 2% (v/v) acetic acid and 0.5% (w/v) ammonium acetate in water (pH ca. 5). The isomers were detected at 268 nm, and the retention times were Tr(cis) 3.7 min and Tr(trans) 5.4 min.
# Samples were mixed with OptiPhase HiSafe 2 scintillation liquid (EG&G Wallac, Turku, Finland) and [^14C]UCA radioactivity measured in RackBeta 1214 scintillation counter (EG&G Wallac). The counting efficiency was 96.7%±0.12% (mean±SEM, n=48).
# Next, we examined whether the [^14C]UCA in the cytosol was metabolized by neutrophils after the uptake by determining how much of the radioactive label was associated with intact UCA. This was carried out by precipitating the cytosolic proteins of [^14C]UCA-labeled neutrophils with 10% trichloracetic acid (TCA) on ice overnight. The amount of radioactive label was then measured both in the precipitate and in the protein-free supernatant by scintillation counting, and the content of intact UCA in the supernatant by HPLC.
# neutrophils [4] = experiment: Monitoring of intracellular pH (BCECF flow cytometry, nigericin calibration); type: cell-based, human; conditions: for effect on intracellular BCECF signal: extracellular pH adjusted to 7.4
# Protocol: Intracellular pH levels in neutrophils were monitored with flow cytometry utilizing a pH-sensitive fluorescent dye 2′,7′-bis-(2-carboxyethyl)-5-(and-6)-carboxyfluorescein (BCECF, acetoxymethyl ester; Molecular Probes, Leiden, The Netherlands). About 30×10^6 cells were incubated in 10 ml HBSS, pH 7.4, containing 0.35 μM BCECF at 25° C. for 30 min, washed twice in HBSS, and resuspended in 1 ml of 154 mM NaCl. Aliquot (235 μl) of the incubation medium with known UCA concentrations and checked pH was applied to the cells (4.5×10^5 cells/15 μl NaCl) in polystyrene tubes, incubated at 25° C. for about 20 min, and analyzed in a flow cytometer.
# Calibration of intracellular pH was performed in situ using the K^+/H^+ ionophore nigericin. An excess of pH calibration buffers (10 mM Pipes, 131 mM KCl, pH adjusted to 6.10, 6.50, 6.80, 7.10, 7.40, and 7.60 or 7.70) and 10 μM nigericin was added to the BCECF-labelled cells in 154 mM NaCl. The cells were kept at room temperature and analysed by flow cytometry within 45 min. Cells incubated with or without UCA were analysed for intracellular pH simultaneously. The pH was adjusted to the same values as those in the calibration buffers. Intracellular pH was determined from a BCECF fluorescence intensity calibration curve.
# [5] = pH effect of UCA isomers on incubation buffers; type: physicochemical; conditions: for pH of test solution after UCA supplementation: 3 mM UCA, unadjusted; for effect on pH of HBSS buffer: HBSS adjusted to pH 6.5 prior to UCA addition
# From the text: As such, UCA resembles small ions (e.g., K^+, Na^+, H^+, […]) which enter the cell and modulate cell functions by altering the physico-chemical micro-environment (pH, ion potential, ion strength) of the cytosol. Therefore, we hypothesized that the high levels of intact UCA may provoke cellular changes simply due to its passive presence in the cytosol as an acid. […] Such a possibility was approached by testing the effect of UCA on pH first in a buffer solution and then in intact cells. […]
# [6] = pH left unadjusted, nominal pH 6.5
# [7] = pH left unadjusted, nominal pH 7.4
# [8] = 3 mM UCA, extracellular pH 6.1-7.7, effect below pH 7
Compound,binding to histamine receptors (histamine receptors),pKa of the carboxyl group ([1]; Roberts 1982),imidazolyl pKa [1],fraction in protonated state [2],"inhibition of respiratory burst chemiluminescence (neutrophils [3]; pH adjusted back to 6.5, n=3)",inhibition of respiratory burst chemiluminescence (neutrophils [3]; pH adjusted back to 7.4),inhibition of respiratory burst chemiluminescence (neutrophils [3]; [6]),inhibition of respiratory burst chemiluminescence (neutrophils [3]; [7]),"recovery of [14C]UCA activity in protein-free supernatant (neutrophil cytosol; 10% TCA precipitation of cytosolic proteins, cis n=9, trans n=4)","effect on intracellular pH (nigericin calibration) (neutrophils [4]; 0.3 mM UCA, same pH range)",effect on intracellular pH (nigericin calibration) (neutrophils [4]; [8]),effect on intracellular BCECF signal (neutrophils [4]; 3 mM UCA),pH of test solution after UCA supplementation ([5]; nominal pH 6.5),pH of test solution after UCA supplementation ([5]; nominal pH 7.4),effect on pH of HBSS buffer [5],fraction in deprotonated state [2],recovery of [14C]UCA activity in protein-free supernatant (neutrophil cytosol; human)
"O=C(O)/C=C\c1c[nH]cn1 [cis-UCA, cis-urocanic acid]",does not directly bind,~3.3,~7.0,over 70%,44%±1.3%,15%±8.4%,48%±1.6%,41%±10%,102%±3.9%,much smaller effect,lowers the intracellular pH,no significant effect,6.33±0.07,6.60±0.02,almost no effect,,
"O=C(O)C=Cc1c[nH]cn1 [trans-UCA, 3-(1H-imidazol-4-yl)-2-propenoic acid, reference compound]",,,~6.1,,14%±4.0%,no effect,48%±4.0%,31%±8.4%,,,only a minor effect,no significant effect,5.87±0.06,6.22±0.02,markedly reduce the pH; also recorded: dropped the pH,70%,100.2%±0.9%
